Source: ChEMBL document CHEMBL5380773, “Novel Feleucin-K3-Derived Peptides Modified with Sulfono-γ-AA Building Blocks Targeting Pseudomonas aeruginosa and Methicillin-Resistant Staphylococcus aureus Infections” (J Med Chem, 2023)
Numbered stars: 1 amine (or outer) side, 2 acyl side, 3 side chain; on linkers, the order of the positions; unused ones are H or OH. Square brackets hold non-standard residues; d marks the D form. Peptide text beside a SMILES is read from it. * marks the point of attachment. X23 = NC(=O)CN(C[C@H](Cc1ccccc1)N*)S(=O)(=O)c1ccc(F)cc1; X24 = Cc1ccc(S(=O)(=O)N(CC(N)=O)C[C@H](Cc2ccccc2)N*)cc1; X25 = CC(C)C[C@@H](CN(CC(N)=O)S(=O)(=O)c1cccc(Cl)c1)N*; X22 = CC(C)C[C@@H](CN(CC(N)=O)S(=O)(=O)c1ccc(F)cc1)N*; X27 = Cc1ccc(S(=O)(=O)N(CC(N)=O)C[C@H](CC(C)C)N*)cc1; X5 = CC(C)c1cc(C(C)C)c(S(=O)(=O)*)c(C(C)C)c1; X3 = N[C@@H](Cc1ccccc1)CN(CC(=O)[*:2])[*:1]; X2 = CC(C)C[C@H](N)CN(CC(=O)[*:2])[*:1]; X10 = O=[N+]([O-])c1ccc(S(=O)(=O)*)cc1; X20 = O=S(=O)(c1ccc(Cl)cc1)*; Tos = Cc1ccc(S(=O)(=O)*)cc1; X4 = O=S(=O)(c1cccc(Cl)c1)*; X1 = O=S(=O)(c1ccc(I)cc1)*

Test system: Erythrocyte
Experiment: Hemolytic activity against mouse red blood cells incubated for 1 hr
Type: toxicity, cell-based

Row | Structure (SMILES) | MHC [µg/mL]
1 | CC(C)C[C@@H](CN(CC(N)=O)S(=O)(=O)c1ccc(F)cc1)NC(=O)[C@H](CCCCN)NC(=O)[C@H](CCCCN)NC(=O)[C@H](CC(C)C)NC(=O)[C@H](CC(C)C)NC(=O)[C@H](CCCCN)NC(=O)[C@H](CC(C)C)NC(=O)[C@@H](N)Cc1ccccc1 (H-FLKLLKK-X22) | 256
2 | CC(C)C[C@H](NC(=O)[C@H](CC(C)C)NC(=O)[C@H](CCCCN)NC(=O)[C@H](CC(C)C)NC(=O)[C@@H](N)Cc1ccccc1)C(=O)N[C@@H](CCCCN)C(=O)N[C@@H](CCCCN)C(=O)N[C@@H](Cc1ccccc1)CN(CC(N)=O)S(=O)(=O)c1ccc(F)cc1 (H-FLKLLKK-X23) | 256
3 | Cc1ccc(S(=O)(=O)N(CC(N)=O)C[C@H](Cc2ccccc2)NC(=O)[C@H](CCCCN)NC(=O)[C@H](CCCCN)NC(=O)[C@H](CC(C)C)NC(=O)[C@H](CC(C)C)NC(=O)[C@H](CCCCN)NC(=O)[C@H](CC(C)C)NC(=O)[C@@H](N)Cc2ccccc2)cc1 (H-FLKLLKK-X24) | 256
4 | CC(C)C[C@@H](CN(CC(N)=O)S(=O)(=O)c1cccc(Cl)c1)NC(=O)[C@H](CCCCN)NC(=O)[C@H](CCCCN)NC(=O)[C@H](CC(C)C)NC(=O)[C@H](CC(C)C)NC(=O)[C@H](CCCCN)NC(=O)[C@H](CC(C)C)NC(=O)[C@@H](N)Cc1ccccc1 (H-FLKLLKK-X25) | 256
5 | Cc1ccc(S(=O)(=O)N(CC(N)=O)C[C@H](CC(C)C)NC(=O)[C@H](CCCCN)NC(=O)[C@H](CCCCN)NC(=O)[C@H](CC(C)C)NC(=O)[C@H](CC(C)C)NC(=O)[C@H](CCCCN)NC(=O)[C@H](CC(C)C)NC(=O)[C@@H](N)Cc2ccccc2)cc1 (H-FLKLLKK-X27) | 256
6 | Cc1ccc(S(=O)(=O)N(CC(=O)N[C@@H](CCCCN)C(=O)N[C@@H](CC(C)C)C(=O)N[C@@H](CC(C)C)C(=O)N[C@@H](CCCCN)C(=O)N[C@@H](CCCCN)C(=O)N[C@@H](CC(C)C)C(=O)N[C@@H](CC(C)C)C(N)=O)C[C@@H](N)CC(C)C)cc1 (Tos-[X2]KLLKKLL-NH2) | 32
7 | CC(C)C[C@H](NC(=O)[C@H](CC(C)C)NC(=O)[C@H](CCCCN)NC(=O)[C@H](CCCCN)NC(=O)[C@H](CC(C)C)NC(=O)[C@H](CC(C)C)NC(=O)[C@H](CCCCN)NC(=O)CN(C[C@@H](N)Cc1ccccc1)S(=O)(=O)c1ccc(I)cc1)C(N)=O (X1-[X3]KLLKKLL-NH2) | 32
8 | CC(C)C[C@H](N)CN(CC(=O)N[C@@H](CCCCN)C(=O)N[C@@H](CC(C)C)C(=O)N[C@@H](CC(C)C)C(=O)N[C@@H](CCCCN)C(=O)N[C@@H](CCCCN)C(=O)N[C@@H](CC(C)C)C(=O)N[C@@H](CC(C)C)C(N)=O)S(=O)(=O)c1cccc(Cl)c1 (X4-[X2]KLLKKLL-NH2) | 256
9 | CC(C)C[C@H](NC(=O)[C@H](CC(C)C)NC(=O)[C@H](CCCCN)NC(=O)[C@H](CCCCN)NC(=O)[C@H](CC(C)C)NC(=O)[C@H](CC(C)C)NC(=O)[C@H](CCCCN)NC(=O)CN(C[C@@H](N)Cc1ccccc1)S(=O)(=O)c1cccc(Cl)c1)C(N)=O (X4-[X3]KLLKKLL-NH2) | 128
10 | CC(C)C[C@H](N)CN(CC(=O)N[C@@H](CCCCN)C(=O)N[C@@H](CC(C)C)C(=O)N[C@@H](CC(C)C)C(=O)N[C@@H](CCCCN)C(=O)N[C@@H](CCCCN)C(=O)N[C@@H](CC(C)C)C(=O)N[C@@H](CC(C)C)C(N)=O)S(=O)(=O)c1c(C(C)C)cc(C(C)C)cc1C(C)C (X5-[X2]KLLKKLL-NH2) | 32
11 | CC(C)C[C@H](NC(=O)[C@H](CC(C)C)NC(=O)[C@H](CCCCN)NC(=O)[C@H](CCCCN)NC(=O)[C@H](CC(C)C)NC(=O)[C@H](CC(C)C)NC(=O)[C@H](CCCCN)NC(=O)CN(C[C@@H](N)Cc1ccccc1)S(=O)(=O)c1c(C(C)C)cc(C(C)C)cc1C(C)C)C(N)=O (X5-[X3]KLLKKLL-NH2) | 16
12 | CC(C)C[C@H](N)CN(CC(=O)N[C@@H](CCCCN)C(=O)N[C@@H](CC(C)C)C(=O)N[C@@H](CC(C)C)C(=O)N[C@@H](CCCCN)C(=O)N[C@@H](CCCCN)C(=O)N[C@@H](CC(C)C)C(=O)N[C@@H](CC(C)C)C(N)=O)S(=O)(=O)c1ccc([N+](=O)[O-])cc1 (X10-[X2]KLLKKLL-NH2) | 256
13 | CC(C)C[C@H](NC(=O)[C@H](CC(C)C)NC(=O)[C@H](CCCCN)NC(=O)[C@H](CCCCN)NC(=O)[C@H](CC(C)C)NC(=O)[C@H](CC(C)C)NC(=O)[C@H](CCCCN)NC(=O)CN(C[C@@H](N)Cc1ccccc1)S(=O)(=O)c1ccc([N+](=O)[O-])cc1)C(N)=O (X10-[X3]KLLKKLL-NH2) | 256
14 | CC(C)C[C@H](N)CN(CC(=O)N[C@@H](CCCCN)C(=O)N[C@@H](CC(C)C)C(=O)N[C@@H](CC(C)C)C(=O)N[C@@H](CCCCN)C(=O)N[C@@H](CCCCN)C(=O)N[C@@H](CC(C)C)C(=O)N[C@@H](CC(C)C)C(N)=O)S(=O)(=O)c1ccc(Cl)cc1 (X20-[X2]KLLKKLL-NH2) | 256
15 | CC(C)C[C@H](NC(=O)[C@H](CC(C)C)NC(=O)[C@H](CCCCN)NC(=O)[C@H](CCCCN)NC(=O)[C@H](CC(C)C)NC(=O)[C@H](CC(C)C)NC(=O)[C@H](CCCCN)NC(=O)CN(C[C@@H](N)Cc1ccccc1)S(=O)(=O)c1ccc(Cl)cc1)C(N)=O (X20-[X3]KLLKKLL-NH2) | 64
